In patent publication US8841413B2, “Antidiabetic compounds” (Cadila Healthcare Limited, priority 2006, dated 2014):

Experiments:
Human GLP-1 receptor = target: T1, Human GLP-1 receptor (Homo sapiens, UniProt P43220); assay type: cell-based; details: in vitro, FIG. 4
T1 construct: The full-length cDNA was cloned in pcDNA3.1(+); expressed in transfected cells
Method: The novel peptidomimetics were screened for Human GLP-1 receptor (HGLP-1 R) agonist activity (in vitro), using the cAMP cell-based assay, in stably transfected CHO/human GLP1R cells. […] CHO cells were grown in Ham's F12 medium containing L-Glutamine (2 mM), HEPES (25 mM), NaHCO3 (1.1 g/L) and supplemented with NewBorn Calf Serum (NBCS; 10%), Penicillin (50 U/ml (v/v)) and Streptomycin (50 ug/ml (v/v)). Cells were split every 3 days 1:8.
The cDNA encoding the human GLP-1 receptor was isolated by RT-PCR according to standard protocol. The full-length cDNA was cloned in pcDNA3.1(+). […] Clones expressing the receptor were generated by G418 (800 μg/ml active, Sigma) selection. The stable clones were thereafter maintained at 500 ug/ml (G418). The selected clone was used between passages 9-25 for cAMP assays.
The trypsin was inactivated using Ham's F12 medium containing 10% NBCS and the cells were suspended in 2 ml of complete medium. […] The medium was aspirated off from the 12 well plate and the cells were washed once using Ham's F12 (plain). […] The cells were incubated with the test compounds for 30 min in humidified atmosphere and 37° C. After the incubation, the medium was removed and cells were washed once with plain Ham's F12. Subsequently, the cells were lysed by adding 500 ul of ice cold 0.1 N HCl to each well and shaking for 30 minutes at 200 rpm. […] The total cAMP was estimated from the sample according to the manufacturer's protocol using Cyclic AMP immunoassay kit (R&D systems, Minneapolis. MN). The remaining supernatant is used to determine the protein concentration using micro BCA (Sigma). Data is calculated as percent of control (Vehicle: water) and expressed as Mean±SD.

C57BL/6J mice = assay: Acute single dose 120-min time-course experiment, in vivo glucose reduction in C57BL/6J mice; design: unit not given here; details: male C57BL/6J mice, Mean ± SEM
Method: All the animal experiments were carried out according to the internationally valid guidelines following approval by the ‘Zydus Research Center animal ethical committee’. […] Two days prior to the study, the animals were randomised and divided into 5 groups (n=6), based upon their fed glucose levels. On the day of experiment, food was withdrawn from all the cages, water was given ad-libitum and were kept for overnight fasting. Vehicle (normal saline)/test/standard compounds were administered intraperitoneally (i.p.) or orally, on a body weight basis. […] Blood samples were centrifuged and the separated serum was immediately subjected for the glucose estimation. Serum for insulin estimation was stored at −70° C. until used for the insulin estimation. The glucose estimation was carried out with DPEC-GOD/POD method (Ranbaxy Fine Chemicals Limited, Diagnostic division, India), using Spectramax-190, in 96-microwell plate reader (Molecular devices Corporation, Sunnyvale, Calif.). […] The AUC and BCAUC obtained from graphs were analyzed for one way ANOVA, followed by Dunnett's post test, using Graph Pad prism software. Furthermore, the insulin estimation was carried out using rat/mouse insulin ELISA kit (Linco research, Mo. USA).

T1 sequence (P43220 24-463): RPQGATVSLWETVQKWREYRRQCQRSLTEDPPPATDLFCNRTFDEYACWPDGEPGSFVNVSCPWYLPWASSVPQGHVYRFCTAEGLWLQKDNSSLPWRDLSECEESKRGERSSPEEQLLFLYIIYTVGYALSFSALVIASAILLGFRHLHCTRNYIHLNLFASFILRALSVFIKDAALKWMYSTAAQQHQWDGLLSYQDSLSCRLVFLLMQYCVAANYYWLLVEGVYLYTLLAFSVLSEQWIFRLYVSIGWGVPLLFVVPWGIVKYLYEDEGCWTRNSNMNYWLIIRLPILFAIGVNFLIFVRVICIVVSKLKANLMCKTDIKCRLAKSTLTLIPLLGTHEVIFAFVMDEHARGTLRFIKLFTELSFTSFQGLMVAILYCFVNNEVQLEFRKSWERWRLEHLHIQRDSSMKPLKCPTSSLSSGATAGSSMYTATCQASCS

SMILES | blood glucose level (C57BL/6J mice; 10 nM/kg, i.p, 0 min) | blood glucose level (C57BL/6J mice; 10 nM/kg, i.p, 30 min) | blood glucose level (C57BL/6J mice; 10 nM/kg, i.p, 60 min) | blood glucose level (C57BL/6J mice; 10 nM/kg, i.p, 120 min) | blood glucose level (C57BL/6J mice; 2 μM/kg, oral, 0 min) | blood glucose level (C57BL/6J mice; 2 μM/kg, oral, 30 min) | blood glucose level (C57BL/6J mice; 2 μM/kg, oral, 60 min) | blood glucose level (C57BL/6J mice; 2 μM/kg, oral, 120 min) | also measured
CCc1cc(OC)ccc1-c1ccc(CC(NC(=O)[C@H](CC(=O)O)NC(=O)[C@H](CO)NC(=O)[C@@H](NC(=O)[C@H](Cc2ccccc2)NC(=O)[C@@H](NC(=O)CNC(=O)[C@H](CCC(N)=O)NC(=O)[C@H](CO)NC(=O)[C@@H](N)Cc2c[nH]cn2)[C@@H](C)O)[C@@H](C)O)C(=O)NC(Cc2ccc(-c3ccccc3C)cc2)C(N)=O)cc1 (single isomer, unassigned) [Seq. ID. No. 5] | – | – | – | – | – | – | – | – | GLP-1 receptor agonistic activity (in words) (Human GLP-1 receptor): GLP-1 receptor agonistic activity
CCc1cc(OC)ccc1-c1ccc(CC(NC(=O)[C@H](CC(=O)O)NC(=O)[C@H](CO)NC(=O)[C@@H](NC(=O)[C@H](Cc2ccccc2)NC(=O)[C@@H](NC(=O)CNC(=O)[C@H](CCC(N)=O)NC(=O)[C@H](C)NC(=O)[C@@H](N)Cc2c[nH]cn2)[C@@H](C)O)[C@@H](C)O)C(=O)NC(Cc2ccc(-c3ccccc3C(F)(F)F)cc2)C(N)=O)cc1 (single isomer, unassigned) [Seq. ID. No. 12] | – | – | – | – | – | – | – | – | blood glucose level (C57BL/6J mice; 50 nM/kg, i.p, 0 min): 184 ± 5.0; blood glucose level (C57BL/6J mice; 50 nM/kg, i.p, 30 min): 122 ± 3.8; blood glucose level (C57BL/6J mice; 50 nM/kg, i.p, 60 min): 128 ± 2.1; blood glucose level (C57BL/6J mice; 50 nM/kg, i.p, 120 min): 149 ± 2.3
CCc1cc(OC)ccc1-c1ccc(CC(NC(=O)[C@H](CC(=O)O)NC(=O)[C@H](CO)NC(=O)[C@@H](NC(=O)[C@H](Cc2ccccc2)NC(=O)[C@@H](NC(=O)CNC(=O)[C@H](CCC(N)=O)NC(=O)C(C)(C)NC(=O)[C@@H](N)Cc2c[nH]cn2)[C@@H](C)O)[C@@H](C)O)C(=O)NC(Cc2ccc(-c3ccccc3C(F)(F)F)cc2)C(N)=O)cc1 (single isomer, unassigned) [Seq. ID. No. 16, H-Aib-QGTFTSD-Bip(OMe)-Bip(2CF3)] | – | – | – | – | – | – | – | – | blood glucose level (C57BL/6J mice; 30 nM/kg, i.p, 0 min): 183 ± 4.9; blood glucose level (C57BL/6J mice; 30 nM/kg, i.p, 30 min): 117 ± 2.5; blood glucose level (C57BL/6J mice; 30 nM/kg, i.p, 60 min): 116 ± 2.3; blood glucose level (C57BL/6J mice; 30 nM/kg, i.p, 120 min): 119 ± 2.0
CCc1cc(OC)ccc1-c1ccc(CC(NC(=O)[C@H](CC(=O)O)NC(=O)[C@H](CO)NC(=O)[C@@H](NC(=O)[C@H](Cc2ccccc2)NC(=O)[C@@H](NC(=O)CNC(=O)[C@H](CCC(N)=O)NC(=O)C2(NC(=O)[C@@H](N)Cc3c[nH]cn3)CC2)[C@@H](C)O)[C@@H](C)O)C(=O)NC(Cc2ccc(-c3ccccc3F)cc2)C(N)=O)cc1 (single isomer, unassigned) [Seq. ID. No. 19, H-(ACP)-QGTFTSD-Bip(OMe)-Bip(2F)] | – | – | – | – | – | – | – | – | blood glucose level (C57BL/6J mice; 30 nM/kg, i.p, 0 min): 180 ± 3.2; blood glucose level (C57BL/6J mice; 30 nM/kg, i.p, 30 min): 119 ± 3.2; blood glucose level (C57BL/6J mice; 30 nM/kg, i.p, 60 min): 117 ± 3.1; blood glucose level (C57BL/6J mice; 30 nM/kg, i.p, 120 min): 118 ± 1.8
CCc1cc(OC)ccc1-c1ccc(CC(NC(=O)[C@H](CC(=O)O)NC(=O)[C@H](CO)NC(=O)[C@@H](NC(=O)C(C)(Cc2ccccc2F)NC(=O)[C@@H](NC(=O)CNC(=O)[C@H](CCC(N)=O)NC(=O)[C@H](CO)NC(=O)[C@@H](N)Cc2c[nH]cn2)[C@@H](C)O)[C@@H](C)O)C(=O)NC(Cc2ccc(-c3ccccc3F)cc2)C(N)=O)cc1 (single isomer, unassigned) [Seq. ID. No. 23, HSQGT-(α-Me-2F-Phe)-TSD-Bip(OMe)-Bip(2F)] | – | – | – | – | – | – | – | – | blood glucose level (C57BL/6J mice; 20 nM/kg, i.p, 0 min): 180 ± 3.1; blood glucose level (C57BL/6J mice; 20 nM/kg, i.p, 30 min): 122 ± 3.9; blood glucose level (C57BL/6J mice; 20 nM/kg, i.p, 60 min): 129 ± 2.2; blood glucose level (C57BL/6J mice; 20 nM/kg, i.p, 120 min): 140 ± 2.9
CCc1cc(OC)ccc1-c1ccc(CC(NC(=O)[C@H](CC(=O)O)NC(=O)[C@H](CO)NC(=O)[C@@H](NC(=O)C(C)(Cc2ccccc2F)NC(=O)[C@@H](NC(=O)CNC(=O)[C@H](CCC(N)=O)NC(=O)[C@H](C)NC(=O)[C@@H](N)Cc2c[nH]cn2)[C@@H](C)O)[C@@H](C)O)C(=O)NC(Cc2ccc(-c3ccccc3C(F)(F)F)cc2)C(N)=O)cc1 (single isomer, unassigned) [Seq. ID. No. 28, HAQGT-(α-Me-2F-Phe)-TSD-Bip(OMe)-Bip(2CF3)] | – | – | – | – | – | – | – | – | blood glucose level (C57BL/6J mice; 20 nM/kg, i.p, 0 min): 182 ± 2.1; blood glucose level (C57BL/6J mice; 20 nM/kg, i.p, 30 min): 121 ± 2.9; blood glucose level (C57BL/6J mice; 20 nM/kg, i.p, 60 min): 130 ± 3.1; blood glucose level (C57BL/6J mice; 20 nM/kg, i.p, 120 min): 138 ± 2.4
CCc1cc(OC)ccc1-c1ccc(CC(NC(=O)[C@H](CC(=O)O)NC(=O)[C@H](CO)NC(=O)[C@@H](NC(=O)C(C)(Cc2ccccc2F)NC(=O)[C@@H](NC(=O)CNC(=O)[C@H](CCC(N)=O)NC(=O)C(C)(C)NC(=O)[C@@H](N)Cc2c[nH]cn2)[C@@H](C)O)[C@@H](C)O)C(=O)NC(Cc2ccc(-c3ccccc3C)cc2)C(N)=O)cc1 (single isomer, unassigned) [Seq. ID. No. 29, H-Aib-QGT-(α-Me-2F-Phe)-TSD-Bip(OMe)-Bip(2Me)] | 180 ± 2.5 | 110 ± 2.6 | 111 ± 3.2 | 112 ± 2.3 | 184 ± 2.5 | 115 ± 3.6 | 113 ± 4.2 | 110 ± 2.4 | –
CCc1cc(OC)ccc1-c1ccc(CC(NC(=O)[C@H](CC(=O)O)NC(=O)[C@H](CO)NC(=O)[C@@H](NC(=O)C(C)(Cc2ccccc2F)NC(=O)[C@@H](NC(=O)CNC(=O)[C@H](CCC(N)=O)NC(=O)C(C)(C)NC(=O)[C@@H](N)Cc2c[nH]cn2)[C@@H](C)O)[C@@H](C)O)C(=O)NC(Cc2ccc(-c3ccccc3C)nc2)C(N)=O)cc1 (single isomer, unassigned) [Seq. ID. No. 30, H-Aib-QGT-(α-Me-2F-Phe)-TSD-Bip(OMe)-Bip(Pyr)] | 182 ± 2.1 | 111 ± 2.1 | 112 ± 2.8 | 113 ± 2.2 | 183 ± 2.4 | 116 ± 3.1 | 112 ± 4.8 | 110 ± 2.5 | –
CCc1cc(OC)ccc1-c1ccc(CC(NC(=O)[C@H](CC(=O)O)NC(=O)[C@H](CO)NC(=O)[C@@H](NC(=O)C(C)(Cc2ccccc2F)NC(=O)[C@@H](NC(=O)CNC(=O)[C@H](CCC(N)=O)NC(=O)C(C)(C)NC(=O)[C@@H](N)Cc2c[nH]cn2)[C@@H](C)O)[C@@H](C)O)C(=O)NC(Cc2ccc(-c3ccccc3F)cc2)C(N)=O)cc1 (single isomer, unassigned) [Seq. ID. No. 31, H-Aib-QGT-(α-Me-2F-Phe)-TSD-Bip(OMe)-Bip(2F)] | 183 ± 2.2 | 113 ± 2.8 | 113 ± 2.9 | 114 ± 2.0 | 185 ± 2.3 | 115 ± 3.8 | 113 ± 4.9 | 109 ± 2.2 | –
CCc1cc(OC)ccc1-c1ccc(CC(NC(=O)[C@H](CC(=O)O)NC(=O)[C@H](CO)NC(=O)[C@@H](NC(=O)C(C)(Cc2ccccc2F)NC(=O)[C@@H](NC(=O)CNC(=O)[C@H](CCC(N)=O)NC(=O)C2(NC(=O)[C@@H](N)Cc3c[nH]cn3)CC2)[C@@H](C)O)[C@@H](C)O)C(=O)NC(Cc2ccc(-c3ccccc3C)cc2)C(N)=O)cc1 (single isomer, unassigned) [Seq. ID. No. 33, H-(ACP)-QGT-(α-Me-2F-Phe)-TSD-Bip(OMe)-Bip(2Me)] | 181 ± 2.5 | 111 ± 3.4 | 113 ± 3.1 | 110 ± 1.8 | 182 ± 2.5 | 116 ± 3.1 | 113 ± 4.1 | 110 ± 2.8 | –
